From patent publication US6964960B2, “Indoloquinazolinones” (Novartis AG, priority 2000, dated 2005)

Assays:
[1] = test system: pentobarbital-anesthetized rabbit myocardial infarction; test: pentobarbital-anesthetized rabbit myocardial infarction model; type: in vivo
Source text: The cardioprotective activity of the agents of the invention is confirmed in vivo e.g. in a model of pentobarbital-anesthetized rabbit myocardial infarction where the infarct size is reduced upon administration of about 1 to about 100 μmol/kg [For the model, see for example Ytrehus K. et al., Am. J. Physiol 267 (Heart Circ. Physiol. 36): H2383-2390, 1994 and Haessler R. et al., Cardiov. Res. 28: 1574-1580, 1994; for the cardioprotective effect of PARP inhibitors as evidenced in this model, see for example Thiemermann C. et al., Proc. Natl. Acad. Sci. USA 94: 679-683, 1997].

SMILES | melting point | reduction of infarct size ([1]; highest dose tested (70 μmol/kg i.v., 22.1 mg/kg of the base), single injection five minutes before reperfusion) [%] | effect on infarct size ([1]; single injection at 3-70 μmol/kg i.v. (0.95-22.1 mg/kg i.v. of the base) five minutes before reperfusion)
Cl.Cl.O=c1[nH]c2c(CCNCCN3CCOCC3)c3ccccc3n2c2ccccc12 | 196 to 198 °C | – | –
CCc1c2ccccc2n2c1[nH]c(=O)c1ccccc12 [Example 1, 7-Ethyl-6H-indolo[1,2-a]quinazoline-5-one] | 245 to 260 °C | – | –
O=c1[nH]c2c(Cc3nnn[nH]3)c3ccccc3n2c2ccccc12 [Example 22, 7-(1 H-Tetrazole-5-ylmethyl)-6H-indolo[1,2-a]quinazoline-5-one] | – | 60 | dose-dependently reduces infarct size
O=c1[nH]c2c(CCO)c3ccccc3n2c2ccccc12 [Example 61, 7-(2-Hydroxy-ethyl)-6H-indolo[1,2-a]quinazoline-5-one] | 248 to 252 °C | – | –
NCCc1c2ccccc2n2c1[nH]c(=O)c1ccccc12 [Example 64, 7-(2-Amino-ethyl)-6H-indolo[1,2-a]quinazoline-5-one] | > 300 °C | – | –
CCC(N)Cc1c2ccccc2n2c1[nH]c(=O)c1ccccc12 (stereo not shown) [Example 65, 7-(2-Amino-butyl)-6H-indolo[1,2-a]quinazoline-5-one] | 165 to 195 °C (dec.) | – | –
